Test results taken from patent US20230053540A1, “TREATMENT OF LIVER INJURY” (Massachusetts Institute of Technology, priority 2019, published 2023).

Test system: hepatocytes
Experiment: Seq-Well scRNA-Seq of hepatocytes after APAP overdose (signature scores, DEG vs untreated)
Type: in vivo, mouse
[1] = cluster A6, DEG between treatment (APAP and PH)

Compound: CC(=O)Nc1ccc(O)cc1 [APAP, acetaminophen]
- Ugdh avg_logFC (cluster A6 (APAP 6 hr)): 0.5563
- Ugdh pct.1 (cluster A6 (APAP 6 hr)): 0.721
- Vcam1 avg_logFC (cluster A6 (APAP 6 hr)): 0.4376
- Vcam1 pct.1 (cluster A6 (APAP 6 hr)): 0.134
- Vsig4 avg_logFC (cluster A6 (APAP 6 hr)): 0.4542
- Vsig4 pct.1 (cluster A6 (APAP 6 hr)): 0.117
- Wfdc17 avg_logFC (cluster A6 (APAP 6 hr)): 0.4173
- Wfdc17 pct.1 (cluster A6 (APAP 6 hr)): 0.177
- Xbp1 avg_logFC (cluster A6 (APAP 6 hr)): 0.4407
- Xbp1 pct.1 (cluster A6 (APAP 6 hr)): 0.692
- Ywhag avg_logFC (cluster A6 (APAP 6 hr)): 0.4649
- Ywhag pct.1 (cluster A6 (APAP 6 hr)): 0.518
- mmu-mir-6240 avg_logFC (cluster A6 (APAP 6 hr)): 1.083
- mmu-mir-6240 pct.1 (cluster A6 (APAP 6 hr)): 0.413
- avg_logFC 1700017B05Rik [1]: 0.3277
- avg_logFC 2010003K11Rik [1]: 0.5729
- avg_logFC AA474408 [1]: 0.2664
- avg_logFC Aass [1]: 0.4071
- avg_logFC Abca1 [1]: 0.6539
- avg_logFC Abhd2 [1]: 0.4149
- avg_logFC Actb [1]: 1.052
- avg_logFC Aff4 [1]: 0.5363
- avg_logFC Agpat9 [1]: 0.3049
- avg_logFC Alb [1]: 0.3749
- avg_logFC Apoa4 [1]: 1.166
- avg_logFC Apob [1]: 0.4802
- avg_logFC App [1]: 0.3381
- avg_logFC Arhgef12 [1]: 0.4856
- avg_logFC Asl [1]: 0.4135
- avg_logFC B4galt5 [1]: 0.4239
- avg_logFC Bach1 [1]: 0.7686
- avg_logFC Bcl2l1 [1]: 0.7415
- avg_logFC Bcl3 [1]: 0.2741
- avg_logFC Btg1 [1]: 0.3984
- avg_logFC Btg2 [1]: 0.7669
- avg_logFC C3 [1]: 0.2785
- avg_logFC C230081A13Rik [1]: 0.4184
- avg_logFC Cars [1]: 0.3067
- avg_logFC Ccl6 [1]: 0.7868
- avg_logFC Cdkn1a [1]: 1.252
- avg_logFC Cers6 [1]: 0.5071
- avg_logFC Chic2 [1]: 0.3964
- avg_logFC Chka [1]: 1.403
- avg_logFC Cidec [1]: 0.3067
- avg_logFC Cldn14 [1]: 0.3695
- avg_logFC Clec4f [1]: 1.124
- avg_logFC Cltc [1]: 0.6852
- avg_logFC Creb3l2 [1]: 0.3971
- avg_logFC Ctsl [1]: 0.5128
- avg_logFC Cxadr [1]: 0.6568
- avg_logFC Cyp4a14 [1]: 0.3334
- avg_logFC D10Wsu102e [1]: 0.5698
- avg_logFC Ddx3x [1]: 0.5612
- avg_logFC Ddx5 [1]: 0.5397
- avg_logFC Ddx21 [1]: 0.6559
- avg_logFC Dgkd [1]: 0.3584
- avg_logFC Dkc1 [1]: 0.3054
- avg_logFC Dot1l [1]: 0.3853
- avg_logFC Dusp6 [1]: 0.5087
- avg_logFC Dusp16 [1]: 0.4273
- avg_logFC Eaf1 [1]: 0.5072
- avg_logFC Eef2 [1]: 0.4059
- avg_logFC Efhd2 [1]: 0.5766
- avg_logFC Egr1 [1]: 0.537
- avg_logFC Eif1a [1]: 0.7228
- avg_logFC Eif4g2 [1]: 0.4126
- avg_logFC Eif5 [1]: 0.4809
- avg_logFC Epas1 [1]: 0.7138
- avg_logFC Epb4.1 [1]: 0.4678
- avg_logFC Errfi1 [1]: 0.3421
- avg_logFC Etf1 [1]: 0.4526
- avg_logFC Ets2 [1]: 0.6806
- avg_logFC Fam107b [1]: 0.4162
- avg_logFC Fam134b [1]: 0.8152
- avg_logFC Fga [1]: 0.501
- avg_logFC Fgb [1]: 0.4774
- avg_logFC Fgg [1]: 0.4751
- avg_logFC Fkbp5 [1]: 0.4567
- avg_logFC Fndc3b [1]: 0.3496
- avg_logFC Gclc [1]: 1.802
- avg_logFC Gcnt2 [1]: 0.5038
- avg_logFC Gjb2 [1]: 0.5038
- avg_logFC Gm15564 [1]: 0.7861
- avg_logFC Gm20594 [1]: 0.4405
- avg_logFC Gm24245 [1]: 0.4984
- avg_logFC Gm26917 [1]: 0.4239
- avg_logFC Gm26924 [1]: 0.7269
- avg_logFC Gn12 [1]: 0.358
- avg_logFC Gnl3 [1]: 0.4902
- avg_logFC Gpt2 [1]: 0.4695
- avg_logFC Gsta1 [1]: 0.4089
- avg_logFC Gtpbp4 [1]: 0.4623
- avg_logFC H3f3b [1]: 0.7184
- avg_logFC Hbb-bs [1]: 2.586
- avg_logFC Heatr1 [1]: 0.3815
- avg_logFC Hif1a [1]: 0.4876
- avg_logFC Hilpda [1]: 0.7803
- avg_logFC Hmox1 [1]: 1.34
- avg_logFC Hnf4a [1]: 0.6962
- avg_logFC Hnrnpdl [1]: 0.3993
- avg_logFC Hsd17b13 [1]: 0.4804
- avg_logFC Hspb8 [1]: 0.6089
- avg_logFC Ifrd1 [1]: 0.4765
- avg_logFC Igfbp1 [1]: 1.09
- avg_logFC Iigp1 [1]: 0.6431
- avg_logFC Il1r1 [1]: 1.189
- avg_logFC Insig2 [1]: 0.6081
- avg_logFC Itih2 [1]: 0.3927
- avg_logFC Itih3 [1]: 0.4042
- avg_logFC Jak1 [1]: 0.5437
- avg_logFC Jmjd1c [1]: 0.5963
- avg_logFC Kif5b [1]: 0.4522
- avg_logFC Klf6 [1]: 0.7067
- avg_logFC Krt8 [1]: 1.273
- avg_logFC Krt18 [1]: 1.227
- avg_logFC Lars2 [1]: 0.8143
- avg_logFC Lcn2 [1]: 0.3876
- avg_logFC Lmo4 [1]: 0.2962
- avg_logFC Lpin2 [1]: 0.5165
- avg_logFC Lrg1 [1]: 0.3324
- avg_logFC Lrrc58 [1]: 0.9396
- avg_logFC Lrrfip1 [1]: 0.4108
- avg_logFC Lyst [1]: 0.3717
- avg_logFC Mak16 [1]: 0.2897
- avg_logFC Malat1 [1]: 0.9854
- avg_logFC Map2k3 [1]: 0.415
- avg_logFC Map3k5 [1]: 0.3131
- avg_logFC Mat1a [1]: 0.3889
- avg_logFC Mat2a [1]: 0.4758
- avg_logFC Mcl1 [1]: 0.5249
- avg_logFC Mdn1 [1]: 0.3079
- avg_logFC Mfsd2a [1]: 0.461
- avg_logFC Mmp14 [1]: 0.2571
- avg_logFC Mpeg1 [1]: 0.4668
- avg_logFC Mrap [1]: 0.8615
- avg_logFC Mt1 [1]: 2.32
- avg_logFC Mt2 [1]: 2.038
- avg_logFC Mybbp1a [1]: 0.4018
- avg_logFC Myh9 [1]: 1.025
- avg_logFC Myl12a [1]: 0.4029
- avg_logFC Myo1e [1]: 0.5786
- avg_logFC Nars [1]: 0.3687
- avg_logFC Ncl [1]: 0.3882
- avg_logFC Neat1 [1]: 0.6554
- avg_logFC Nedd4l [1]: 0.2635
- avg_logFC Nolc1 [1]: 0.4445
- avg_logFC Nop58 [1]: 0.6343
- avg_logFC Pfkfb2 [1]: 0.2694
- avg_logFC Phc2 [1]: 0.299
- avg_logFC Picalm [1]: 0.6766
- avg_logFC Plec [1]: 0.4188
- avg_logFC Plin2 [1]: 1.454
- avg_logFC Plk3 [1]: 0.4158
- avg_logFC Plscr1 [1]: 0.4497
- avg_logFC Ppan [1]: 0.2767
- avg_logFC Ppl [1]: 0.8618
- avg_logFC Prrc2c [1]: 0.3906
- avg_logFC Ptp4a1 [1]: 0.2517
- avg_logFC Ptpn1 [1]: 0.3865
- avg_logFC Ptpn2 [1]: 0.271
- avg_logFC Ptpn12 [1]: 0.3093
- avg_logFC Pxk [1]: 0.2652
- avg_logFC Rad54l2 [1]: 0.3642
- avg_logFC Ranbp2 [1]: 0.5074
- avg_logFC Rcan1 [1]: 0.701
- avg_logFC Rell1 [1]: 0.5793
- avg_logFC Retsat [1]: 0.2918
- avg_logFC Rnd3 [1]: 0.3267
- avg_logFC Rock2 [1]: 0.5552
- avg_logFC Rora [1]: 0.541
- avg_logFC S100a8 [1]: 1.127
- avg_logFC S100a9 [1]: 1.342
- avg_logFC Sat1 [1]: 0.6887
- avg_logFC Sdad1 [1]: 0.2969
- avg_logFC Sdc4 [1]: 0.5673
- avg_logFC Sds [1]: 0.3515
- avg_logFC Serpina3m [1]: 0.7932
- avg_logFC Serpina3n [1]: 0.6641
- avg_logFC Slc10a2 [1]: 0.2704
- avg_logFC Slc16a6 [1]: 0.914
- avg_logFC Slc20a1 [1]: 0.326
- avg_logFC Slc39a14 [1]: 0.9161
- avg_logFC Smg1 [1]: 0.3045
- avg_logFC Son [1]: 0.4555
- avg_logFC Spred1 [1]: 0.352
- avg_logFC Sqstm1 [1]: 0.6992
- avg_logFC Srgn [1]: 0.9289
- avg_logFC Srxn1 [1]: 1.864
- avg_logFC St3gal1 [1]: 0.517
- avg_logFC St3gal5 [1]: 0.4358
- avg_logFC Stat3 [1]: 0.652
- avg_logFC Stk40 [1]: 0.493
- avg_logFC Stom [1]: 0.3
- avg_logFC Tacc2 [1]: 0.3128
- avg_logFC Tars [1]: 0.4718
- avg_logFC Tatdn2 [1]: 0.3248
- avg_logFC Tbc1d15 [1]: 0.4322
- avg_logFC Tcerg1 [1]: 0.3468
- avg_logFC Tiparp [1]: 0.5248
- avg_logFC Tjp2 [1]: 0.3961
- avg_logFC Tm4sf4 [1]: 0.4006
- avg_logFC Tmem87b [1]: 0.4054
